From PMC11732441, “Biased constitutive signaling of the G protein-coupled receptor GPR35 suppresses gut barrier permeability [drawing 1]” (The Journal of Biological Chemistry, 2024)

Columns and labels:
hGPR35a [1] = target: T1, hGPR35a (Homo sapiens, UniProt Q9HC97); test: BRET G protein dissociation (TRUPATH-like) in Flp-In T-REx […] cells expressing FLAG-hGPR35a; type: cell-based
T1 construct: gene GPR35; FLAG-hGPR35a (N-terminal FLAG tag); with Gα13/Gβ3/Gγ9

hGPR35a [2] = target: T1, hGPR35a; test: BRET G protein re-association (inverse agonism) in HEK293 cells; effect in HEPG2 cells lost on GPR35 knock-out; type: cell-based

T1 sequence (Q9HC97 whole entry): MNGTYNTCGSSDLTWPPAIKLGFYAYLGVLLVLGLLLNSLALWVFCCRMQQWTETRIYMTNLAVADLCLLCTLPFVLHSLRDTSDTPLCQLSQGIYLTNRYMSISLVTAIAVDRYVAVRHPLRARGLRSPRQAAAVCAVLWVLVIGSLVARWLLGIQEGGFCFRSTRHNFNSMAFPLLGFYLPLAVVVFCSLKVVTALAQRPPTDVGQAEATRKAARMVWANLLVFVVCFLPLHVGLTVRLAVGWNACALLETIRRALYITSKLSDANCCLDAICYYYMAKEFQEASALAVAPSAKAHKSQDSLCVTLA
T1 sequence (Q14344 whole entry partner): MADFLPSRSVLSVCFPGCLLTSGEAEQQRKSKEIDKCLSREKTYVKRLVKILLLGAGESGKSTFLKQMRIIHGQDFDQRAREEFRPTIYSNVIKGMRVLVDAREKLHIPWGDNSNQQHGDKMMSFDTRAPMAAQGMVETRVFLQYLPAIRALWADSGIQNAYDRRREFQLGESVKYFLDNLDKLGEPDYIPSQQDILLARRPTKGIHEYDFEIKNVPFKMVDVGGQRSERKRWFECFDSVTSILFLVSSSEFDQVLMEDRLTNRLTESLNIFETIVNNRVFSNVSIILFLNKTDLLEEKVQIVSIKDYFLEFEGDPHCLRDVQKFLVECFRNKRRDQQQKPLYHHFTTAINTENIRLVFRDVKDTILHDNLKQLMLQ
T1 sequence (P16520 whole entry partner): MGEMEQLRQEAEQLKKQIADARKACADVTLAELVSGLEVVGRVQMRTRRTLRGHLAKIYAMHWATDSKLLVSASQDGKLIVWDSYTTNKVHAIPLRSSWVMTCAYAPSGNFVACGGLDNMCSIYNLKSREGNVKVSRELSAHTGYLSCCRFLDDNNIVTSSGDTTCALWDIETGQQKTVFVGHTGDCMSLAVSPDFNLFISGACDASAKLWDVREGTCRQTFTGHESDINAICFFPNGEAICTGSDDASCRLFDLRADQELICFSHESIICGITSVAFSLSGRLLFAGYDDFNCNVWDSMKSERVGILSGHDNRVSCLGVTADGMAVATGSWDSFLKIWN
T1 sequence (O14610 1-66 partner): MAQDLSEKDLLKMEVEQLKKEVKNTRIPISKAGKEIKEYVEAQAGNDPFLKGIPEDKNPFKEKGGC

| SMILES | EC50 (hGPR35a [1]) [nM] | BRET G protein re-association (inverse agonism) in HEK293 cells; effect in HEPG2 (hGPR35a [2]) |
| --- | --- | --- |
| N#Cc1cc(NC(=O)C(=O)O)c(Cl)c(NC(=O)C(=O)O)c1 [lodoxamide] | 1.48 |  |
| COC(=O)c1cnn(-c2ccc(F)cc2F)c1C=NNC(=S)NC(C)(C)C [CID-2745687] |  | the BRET signal induced by CID-2745687 increased with receptor plasmid amount |
